Results on 21 compounds are retold here after US10414778B2, “Methods for treatment of resistant cancer” (New Mexico Tech University Research Park Corporation, priority 2016, dated 2019).

Holding throughout (format): cell-based, human
One assay deals with MCF-7 cells. In words: MTT in vitro growth inhibition assay, MCF-7. The settings on record: two independent experiments. Here is the method: (§1) Human cancer cell lines were obtained from the American Type Culture Collection (ATCC, Manassas, Va., USA), the European Collection of Cell Culture (ECACC, Salisbury, UK), and the Deutsche Sammlung von Mikroorganismen und Zellkulturen (DSMZ, Braunschweig, Germany). Human cervical adenocarcinoma HeLa cells were cultured in DMEM supplemented with 10% fetal bovine serum (FBS). Human mammary carcinoma MCF-7 cells were cultured in RPMI supplemented with 10% FBS. The U87 cells (ATCC HTB-14) were cultured in DMEM culture medium, while the A549 cells (DSMZ ACC107) were cultured in RPMI culture medium supplemented with 10% heat-inactivated FBS. The GBM Hs683 (ATCC HTB-138) and the T98G (ATCC CRL-1690) cell lines were cultivated in DMEM supplemented with 10% FBS. The GBM U251 cells (ECACC code 09063001) were cultured in 10% MEM. The human uterine sarcoma MES-SA and MES-SA/Dx5 cells were cultured in RPMI-1640 medium supplemented with 10% FBS with MES SA/Dx5 maintained in the presence of 500 nM Doxorubicin (Sigma™). The U373 glioblastoma cells (ECACC 08061901) were cultured in RPMI culture medium supplemented with 10% heat-inactivated FBS.
(§2) Spirodienones 4a-m were subjected to in vitro growth inhibition 3-(4,5-dimethylthiazol-2-yl)-2,5-diphenyltetrazolium bromide (MTT) assays against two cell lines, human HeLa cervical and MCF-7 breast adenocarcinomas.
(§3) All compounds were dissolved in DMSO at a concentration of either 100 mM or 50 mM prior to cell treatment. The cells were trypsinized and seeded at various cell concentrations depending on the cell type. The cells were grown for 24 h to 72 h, treated with compounds at concentrations ranging from 0.001 to 100 μM, and incubated for 48, 72, or 96 h in 100 or 200 μL media depending on the cell line used. Cells treated with 0.1% DMSO were used as a negative control, and cells treated with 1 μM phenyl arsine oxide (PAO) were used as a positive control.
(§4) To determine the activities of the compounds of the invention toward cancer cells, cell lines treated with different compounds were subjected to an in vitro MTT growth assay using human cervical cancer (HeLa) and human adenocarcinoma (MCF-7) cell lines. The MTT growth assay is a colorimetric assay that measures the metabolic activity of cells via reduction of 3-(4,5-dimethylthiazol-2-yl)-2,5-diphenyltetrazolium bromide (MTT). The reduction of MTT occurs in metabolically-active cells and is characterized by a purple color, which can be quantified via spectrophotometry. A higher absorbance reading indicates a metabolically-active cell, while a low absorbance reading indicates low metabolic activity due to, for example, inhibition of cellular proliferation or cell death.
(§5) The values in TABLE 4 are the mean and standard deviation calculated from two independent experiments, which were performed in 4 replicates.

In a further assay the test system is HeLa cells. Nature of the assay: MTT in vitro growth inhibition assay, HeLa. Particulars: two independent experiments. The method, then: as §1, §2, §3, §4, §5
The next assay deals with A549 cells. In words: MTT growth inhibition, A549 NSCLC. Particulars: 48 hours, up to 100 μM, FIGS. 4-7. Here is the method:
as §1, §3
Drug-resistant cell lines (i.e., glioma: Hs683, U373, U251, U87, T98G; lung cancer: A549, H2073; uterine carcinoma: MES-SA/Dx5) were complemented with drug-sensitive cell lines, H1993 lung cancer and MES-SA uterine cancer, which were used as controls. […] The GI50 values were calculated after 48-96 hours of treatment with the indicated compounds in replicate using the MTT growth assay.
Compounds 5l and 5g were further tested using the A549 lung cancer cell line to determine a dose-response effect on apoptosis-resistant cells. (FIGS. 4-7). […] The MTT assay was performed in four replicates after 48 hours of treatment with the indicated compounds relative to a DMSO control.

Another assay relates to H2073 cells. Nature of the assay: MTT growth inhibition, H2073 drug-resistant NSCLC. The settings on record: Homo sapiens, NCI-H2073, MTT. The method, then:
NSCLC cell lines H1993 and H2073 were obtained from the Hamon Center for Therapeutic Oncology Research at UT Southwestern Medical Center and cultured in RPMI-1640 medium (Mediatech, VA, USA) supplemented with 5% heat-inactivated FBS (Mediatech™), 100 units/mL penicillin and 0.1 mg/mL streptomycin (Sigma™). All cell lines were cultured in T25 flasks, maintained, and grown at 37° C., 95% humidity, 5% CO2.
as §3
Spirodienone 4l was evaluated against patient-derived NSCLC cell line H1993 and its drug-resistant variant, H2073. The patient-derived NSCLC cell line […] was obtained from a regrown tumor at a primary site after a patient relapsed several months later.
(§6) Due to their high potencies, compounds 5l and 5g were used to determine the effects of the compounds on drug-resistant tumor cells. Drug-resistant cell lines (i.e., glioma: Hs683, U373, U251, U87, T98G; lung cancer: A549, H2073; uterine carcinoma: MES-SA/Dx5) were complemented with drug-sensitive cell lines, H1993 lung cancer and MES-SA uterine cancer, which were used as controls. Bulbispermine and paclitaxel were also used as controls. The GI50 values were calculated after 48-96 hours of treatment with the indicated compounds in replicate using the MTT growth assay.
Compound 5l was further tested to determine the effect of compounds of the invention on drug-resistant tumor cells. A patient-derived non-small cell lung cancer (NSCLC) line, H1993, and the drug-resistant variant of H1993, H2073, were used for testing. The H1993 cell line was obtained from a lymph node metastasis isolated from the patient prior to chemotherapy. The H2073 cell line was derived from a regrown tumor at the primary site after the patient had relapsed several months after administration of the chemotherapy regimen.

The test system of a further assay is MES-SA/Dx5 cells. In words: MTT growth inhibition, MDR uterine sarcoma MES-SA/Dx5. The settings on record: Homo sapiens, MES-SA/Dx5, MTT. Here is the method: as §1, §3
Compound 4l was also evaluated against the MDR uterine sarcoma cell line (MES-SA/Dx5 to evaluate whether the compounds of the invention were substrates for the MDR cancer efflux systems. The MES-SA/Dx5 cell line was established from the parent uterine sarcoma MES-SA, grown in the presence of increasing concentrations of doxorubicin and is known to be resistant to a number of P-gp substrates.
The selection of doxorubicin-resistant cells (MES-SA/Dx5 cell line) was performed by splitting the cells and allowing the cells to adhere overnight. The next day, the cells were initially exposed to a DOX concentration of 100 nM, which represented the GI50 concentration. The cells were maintained at this DOX concentration until their growth rate reached that of the untreated cells. The DOX concentration was then increased in two-fold increments following the same growth criteria at each concentration to a final DOX concentration of 500 nM. Each new DOX concentration required approximately 2 passages to reach the growth rate of the untreated cells.
as §6

Setting [1] is: Homo sapiens, MCF7, Table 4, 48-hour treatment, mean and standard deviation, read-out: MCF-7 Cell Viability GI50.
The mark [2] stands for this setting: Homo sapiens, HeLa, Table 4, 48-hour treatment, mean and standard deviation, read-out: HeLa Cell Viability GI50.
[3] abbreviates: Homo sapiens, MCF7, MCF-7, 48 h treatment, ± SD, read-out: cell viability GI50, MCF-7.
The mark [4] stands for this setting: Homo sapiens, HeLa, 48 h treatment, ± SD, read-out: cell viability GI50, HeLa.

Read-outs that look alike come from different tables or passages of the source. A value given as a limit tells only on which side of the number the result lay.

On to `O=C1C=C[C@]23CC[N@](Cc4cc5c(cc42)OCCO5)[C@H]3C1` [Compound 5c], for which the values for the GI50 with MCF-7 cells (setting [1]) and in the assay on HeLa cells (setting [2]) were 18.6 ± 0.8 µM and 12.7 ± 2.3 µM, respectively.
As for `COc1cc2c(cc1OC)[C@@]13C=CC(=O)C[C@@H]1[N@](CC3)C2` [Compound 5b], the GI50 was greater than 100 µM with MCF-7 cells (setting [1]) and 63.5 ± 2.7 µM with HeLa cells (setting [2]).
Take `COc1cc2c(cc1OCc1ccccc1)[C@@]13C=CC(=O)C[C@@H]1[N@](CC3)C2` [Compound 5f]: the GI50 in the assay with MCF-7 cells (setting [1]) was found to be 16.8 ± 0.2 µM; in the assay on HeLa cells (setting [2]), 16.7 ± 1.8 µM.
For the compound `COc1cc2c(cc1OC)C1(C=CC(=O)C=C1)CCN(C(=O)C(F)(F)F)C2` [Compound 4b], the GI50 in the assay on MCF-7 cells (setting [3]) is greater than 100 µM; in the assay with HeLa cells (setting [4]), 83 ± 5 µM.
On to `CO[C@@H]1C=C[C@@]23c4cc5c(cc4CN(C[C@@H]2O)[C@H]3C1)OCO5` [Haemanthamine, reference compound], for which the GI50 is 2.1 ± 0.2 µM with MCF-7 cells (Table 4, 48-hour treatment, mean and standard deviation, read-out: MCF-7 Cell Viability GI50); 1.8 ± 0.3 µM with HeLa cells (Table 4, 48-hour treatment, mean and standard deviation, read-out: HeLa Cell Viability GI50).
Consider `O=C1C=CC2(C=C1)CCN(C(=O)C(F)(F)F)Cc1cc(OCc3ccccc3)c(OCc3ccccc3)cc12` [Compound 4g], for which the GI50 stood at 25 ± 2 µM with MCF-7 cells (setting [3]) and 17 ± 1 µM with HeLa cells (setting [4]).
Take `O=C1C=C[C@]23CC[N@](Cc4cscc42)[C@H]3C1` [Compound 5k]: the GI50 with MCF-7 cells (setting [1]) worked out at 43.6 ± 2.1 µM; with HeLa cells (setting [2]), 25.4 ± 5.2 µM.
As for `O=C1C=CC2(C=C1)CCN(C(=O)C(F)(F)F)Cc1c2ccc2c1OCO2` [Compound 4d], the GI50 in the assay on MCF-7 cells (setting [3]) and in the assay with HeLa cells (setting [4]) was greater than 100 µM each time.
In the case of `CC(=O)O[C@H]1C(=O)[C@@]2(C)[C@H]([C@H](OC(=O)c3ccccc3)[C@]3(O)C[C@H](OC(=O)[C@H](O)[C@@H](NC(=O)c4ccccc4)c4ccccc4)C(C)=C1C3(C)C)[C@]1(OC(C)=O)CO[C@@H]1C[C@@H]2O` [paclitaxel, reference compound], the “anti-proliferative activity, dose-response (absorbance at 595 nm)” value in the assay with A549 cells is given as “did not display such potent anti-proliferative activity”. Besides, the GI50 was determined as 2.4 µM in the assay with H2073 cells (Table 3, 48-96 h treatment, read-out: GI50 in vitro values, lung cancer H2073); 2.4 µM with H2073 cells (Table 5, 48-96 hours of treatment, read-out: GI50, Lung Cancer H2073); 10 µM in the assay with MES-SA/Dx5 cells (Table 3, 48-96 h treatment, read-out: GI50 in vitro values, uterine sarcoma MES-SA/Dx5); 10 µM in the assay with MES-SA/Dx5 cells (Table 5, 48-96 hours of treatment, read-out: GI50, Sarcoma MES-SA/Dx5).
Regarding `O=C1C=C[C@]23CC[N@](Cc4cc5c(cc42)OCO5)[C@H]3C1` [Compound 5a], the GI50 was found to be 23.9 ± 0.7 µM in the assay with MCF-7 cells (setting [1]) and 25.4 ± 3 µM in the assay on HeLa cells (setting [2]).
For `COc1cc([C@@H]2c3cc4c(cc3[C@H](O)[C@H]3COC(=O)[C@H]23)OCO4)cc(OC)c1OC` [PODO, podophyllotoxin, reference compound], the “anti-proliferative activity, dose-response (absorbance at 595 nm)” value in the assay with A549 cells is listed as “did not display such potent anti-proliferative activity”.
In the case of `O=C1C=C[C@]23CC[N@](Cc4cccc(OCc5ccccc5)c42)[C@H]3C1` [Compound 5i], the GI50 in the assay with MCF-7 cells (setting [1]) came out at 11 µM; in the assay on HeLa cells (setting [2]), 7.37 ± 0.9 µM.
As for `COc1cc2c(cc1OCc1ccccc1)CN(C(=O)C(F)(F)F)CCC21C=CC(=O)C=C1` [Compound 4e], the GI50 in the assay with MCF-7 cells (setting [3]) is 48 ± 3 µM; with HeLa cells (setting [4]), 38 ± 2 µM.
`O=C1C=CC2(C=C1)CCN(C(=O)C(F)(F)F)Cc1cc(OCc3ccccc3)ccc12` [Compound 4h]: the GI50 is 40 ± 1 µM in the assay on MCF-7 cells (setting [3]) and 16 µM in the assay with HeLa cells (setting [4]).
The matching figures for `O=C1C=CC2(C=C1)CCN(C(=O)C(F)(F)F)Cc1cccc(OCc3ccccc3)c12` [Compound 4i]: 14 ± 2 µM and 11 ± 2 µM.
Turning to `COc1cc2c(cc1OCc1ccccc1)C[N@@]1CC[C@@]23C=CC(=O)C[C@H]13` [Compound 5e], the GI50 with MCF-7 cells (setting [1]) came to 14.5 ± 1 µM; in the assay with HeLa cells (setting [2]), 11.8 ± 0.5 µM.
`O=C1C=CC2(C=C1)CCN(C(=O)C(F)(F)F)Cc1cc3c(cc12)OCO3` [Compound 4a]: the GI50 turned out to be 30 ± 2 µM in the assay with MCF-7 cells (setting [3]) and 24 ± 2 µM in the assay with HeLa cells (setting [4]).
For the compound `O=C1C=C[C@]23CC[N@](Cc4c2ccc2c4OCO2)[C@H]3C1` [Compound 5d], the GI50 came to 72.5 ± 2.5 µM in the assay with MCF-7 cells (setting [1]) and 60.5 ± 4.7 µM with HeLa cells (setting [2]).
As for `O=C1C=C[C@]23CC[N@](Cc4cc(OCc5ccccc5)ccc42)[C@H]3C1` [Compound 5h], the GI50 with MCF-7 cells (setting [1]) was 14.4 ± 1 µM; with HeLa cells (setting [2]), 7.9 ± 0.3 µM.
Take `O=C1C=CC2(C=C1)CCN(C(=O)C(F)(F)F)Cc1cc3c(cc12)OCCO3` [Compound 4c]: the GI50 in the assay on MCF-7 cells (setting [3]) was 34 ± 12 µM; in the assay with HeLa cells (setting [4]), 21 ± 1 µM.
The matching figures for `COc1cc2c(cc1OCc1ccccc1)C1(C=CC(=O)C=C1)CCN(C(=O)C(F)(F)F)C2` [Compound 4f]: 34 ± 2 µM and 34 ± 4 µM.
